Measured values as given in patent publication EP0214009A2, “Enaminones as potential prodrugs of primary and secondary amines” (priority 1985, dated 1987).
Read-outs that look alike come from different tables or passages of the source.

Experiments:
[1] = Hydrolysis in the presence of human plasma; assay type: in vitro ADME
[2] = Chemical hydrolysis in isotonic Sorensen phosphate buffer, followed spectrophotometrically; assay type: physicochemical; details: pH 7.4, 25°C, no enzyme, read-out: apparent half lives for chemical hydrolysis
[3] = system: carbonic anhydrase; experiment: Hydrolysis in the presence of carbonic anhydrase; assay type: in vitro ADME
[4] = Hydrolysis in the presence of porcine liver esterase (half-lives, Michaelis-Menten parameters from Lineweaver Burk plots); assay type: in vitro ADME; details: pig; 60 × 10⁻⁴ units/ml porcine liver esterase, initial substrate concentration 16 µM, pH 7.4, 25°C; read-out: apparent half lives in the presence of porcine liver esterase
[5] = system: Porcine liver esterase; experiment: as above; assay type: in vitro ADME
[6] = Hydrolysis in the presence of rat intestinal homogenates; assay type: in vitro ADME
[7] = Hydrolysis in the presence of rat liver homogenates; assay type: in vitro ADME
[8] = Hydrolysis in the presence of rat plasma; assay type: in vitro ADME

SMILES: CCOC(=O)C1=C(Nc2ccccc2)CCCC1 [Example 2, Ethyl 2-(N-phenylamino)-l-cyclohexene-l-carboxylate]
- Catalysis of the hydrolysis [1]: not observed
- half-life [2]: 18 min
- Catalysis of the hydrolysis [3]: not observed
- half-life at 16 µM [4]: 10 min
- Km ([5]; average over the three enzyme concentrations, read-out: Average Km): 7.2 mM
- Vmax ± S.D. ([5]; enzyme concentration 16.7 (Units/ml x 10^4)): 45.5 ± 3 mM/h
- Km ([5]; enzyme concentration 16.7 (Units/ml x 10^4), read-out: Km ± S.D.): 11.2 ± 0.1 mM
- Vmax ± S.D. ([5]; enzyme concentration 32.4 (Units/ml x 10^4)): 56.8 ± 8 mM/h
- Km ([5]; enzyme concentration 32.4 (Units/ml x 10^4), read-out: Km ± S.D.): 5.3 ± 0.2 mM
- Vmax ± S.D. ([5]; enzyme concentration 61.2 (Units/ml x 10^4)): 95.2 ± 10 mM/h
- Km ([5]; enzyme concentration 61.2 (Units/ml x 10^4), read-out: Km ± S.D.): 5.2 ± 0.2 mM
- Catalysis of the hydrolysis [6]: not observed
- Catalysis of the hydrolysis [7]: not observed
- Catalysis of the hydrolysis [8]: not observed
